Test results reported in ChEMBL document CHEMBL1136491, “1-aryl-6,7-methylenedioxy-3H-quinazolin-4-ones as anticonvulsant agents” (Bioorg Med Chem Lett, 2003).

Assays:
Mus musculus [1] = assay: Anticonvulsant activity against audiogenic tonus seizure 30 min after intraperitoneal administration (3.3-200 umol/kg) in DBA/2 mice; type: functional; conditions: ip, 0.5 h
[2] = target: Glutamate receptor ionotropic, AMPA (Rattus norvegicus, UniProt P19490+P19491+P19492+P19493); assay: Ability to displace [3H]CP-526427 (3 nM) from binding site of the Ionotropic glutamate receptor AMPA in rat forebrain membrane; type: cell membranes
Mus musculus [3] = assay: Anticonvulsant activity against audiogenic clonus seizure 30 min after intraperitoneal administration (3.3-200 umol/kg) in DBA/2 mice; type: functional; conditions: ip, 0.5 h
Mus musculus [4] = assay: Anticonvulsant activity against audiogenic clonus seizure 15 min after intraperitoneal administration (3.3-200 umol/kg) in DBA/2 mice; type: functional; conditions: ip, 0.25 h

Oc1nc(-c2ccc(F)cc2)nc2cc3c(cc12)OCO3
ED50 (Mus musculus [1]): 27.8 µmol/kg
IC50 [2]: > 100 µM
ED50 (Mus musculus [3]): 32.7 µmol/kg

Oc1nc(-c2ccc(Cl)cc2)nc2cc3c(cc12)OCO3
ED50 (Mus musculus [1]): 21.6 µmol/kg
IC50 [2]: > 100 µM
ED50 (Mus musculus [3]): 36.5 µmol/kg

Oc1nc(-c2ccc(Br)cc2)nc2cc3c(cc12)OCO3
ED50 (Mus musculus [1]): 36.6 µmol/kg
ED50 (Mus musculus [3]): 68.3 µmol/kg

Nc1ccc(-c2nc(O)c3cc4c(cc3n2)OCO4)cc1
ED50 (Mus musculus [1]): 17.7 µmol/kg
IC50 [2]: > 100 µM
ED50 (Mus musculus [3]): 27.8 µmol/kg

Nc1ccc(-c2nc(S)c3cc4c(cc3n2)OCO4)cc1
ED50 (Mus musculus [1]): 17.9 µmol/kg
ED50 (Mus musculus [3]): 37.8 µmol/kg
ED50 (Mus musculus [4]): 79.4 µmol/kg

Oc1nc(-c2ccccc2)nc2cc3c(cc12)OCO3
ED50 (Mus musculus [1]): 46.1 µmol/kg
IC50 [2]: > 100 µM
ED50 (Mus musculus [3]): 59.5 µmol/kg

O=C1Cc2cc3c(cc2C(c2ccc(F)cc2)=NN1)OCO3
ED50 (Mus musculus [1]): 63.8 µmol/kg
ED50 (Mus musculus [3]): 89.8 µmol/kg

Nc1ccc(-c2nnc(O)c3cc4c(cc23)OCO4)cc1
IC50 [2]: > 100 µM
